Patent US11279714B2, “Anti-infective compounds” (priority 2014, dated 2022)
≈ marks a conversion by molar mass, not a printed value.

Columns and labels:
[1] = system: M. tuberculosis H37Rv expressing the green fluorescent protein (H37Rv-GFP); test: microbe, parasite or virus in culture; format: cell-based; conditions: for MIC50: Mycobacterium tuberculosis, H37RV, 120 h, read-out: QUM (MIC50)
[2] = system: Raw 264.7 cells infected with H37Rv-GFP; test: microbe, parasite or virus in culture; format: cell-based, M. tuberculosis; conditions: for MIC50: Mycobacterium tuberculosis, H37RV, 120 h, read-out: QIM (MIC50)

| Structure (SMILES) | MIC50 [1] [µM] | MIC50 [2] [µM] | QUM (MIC50, uM) [1] | QIM (MIC50, uM) [2] |
| --- | --- | --- | --- | --- |
| COc1ccc(Cn2cc(F)c(-c3ccc(NC(=O)c4cc5sc(N6CCOCC6)nc5s4)cc3)n2)cc1 [Compound 158] | 1 to 20 (≈ 0.55 to 11 µg/mL) | < 1 | – | – |
| COc1ccc(NC(=O)c2cc3sc(N4CCC(C(=O)O)CC4)nc3s2)cc1 [Compound 149] | 1 to 20 (≈ 0.418 to 8.35 µg/mL) | 1 to 20 (≈ 0.418 to 8.35 µg/mL) | – | – |
| O=C(Nc1ccc(-c2ccc(F)nc2)cc1)c1cc2sc(NCCN3CCOCC3)nc2s1 [Compound 288] | < 1 | < 1 | – | – |
| O=C(Nc1ccc(-c2ccc(F)cn2)cc1)c1cc2sc(N3CCN4CCCC4C3)nc2s1 (centres unmarked) [Compound 324] | < 1 | < 1 | – | – |
| COCCN(C)c1nc2sc(C(=O)Nc3ccc(-c4ccc(F)nc4)cc3)cc2s1 [Compound 271] | < 1 | < 1 | – | – |
| CN(C)C(=O)C1CCN(c2nc3sc(C(=O)Nc4ccc(-c5ccc(F)cc5)cn4)cc3s2)CC1 [Compound 246] | 1 to 20 (≈ 0.51 to 10.2 µg/mL) | < 1 | – | – |
| Cc1nc2cc(NC(=O)c3cc4sc(NCCN5CCN(C)CC5)nc4s3)ccc2o1 [Compound 326] | > 20 | > 20 | – | – |
| O=C(Nc1ccc(F)cn1)c1cc2sc(N3CCNCC3)nc2s1 [Compound 342] | 1 to 20 (≈ 0.363 to 7.27 µg/mL) | < 1 | – | – |
| CN(C)C(=O)CC1CCN(c2nc3sc(C(=O)Nc4ccc(-c5ccc(F)nc5)cc4)cc3s2)CC1 [Compound 351] | < 1 | < 1 | – | – |
| Cc1nc2cc(NC(=O)c3cc4sc(N5CC[C@@H](C(=O)Nc6ccc7nc(C)oc7c6)C5)nc4s3)ccc2o1 [Compound 222] | 1 to 20 (≈ 0.559 to 11.2 µg/mL) | < 1 | – | – |
| Cc1nc2cc(NC(=O)c3cc4sc(NCCN5CCOCC5)nc4s3)ccc2o1 [Compound 224] | 1 to 20 (≈ 0.444 to 8.87 µg/mL) | < 1 | – | – |
| O=C(Nc1ccc(F)cc1)c1cc2sc(NCCCN3CCOCC3)nc2s1 [Compound 327] | 1 to 20 (≈ 0.421 to 8.41 µg/mL) | 1 to 20 (≈ 0.421 to 8.41 µg/mL) | – | – |
| CC1CCN(c2ccc(NC(=O)c3cc4sc(N5CCNCC5)nc4s3)cc2)CC1 [Compound 344] | 1 to 20 (≈ 0.442 to 8.83 µg/mL) | < 1 | – | – |
| Cc1nc2cc(NC(=O)c3cc4sc(N5CC[C@H](C(=O)N(C)C)C5)nc4s3)ccc2o1 [Compound 215] | < 1 | < 1 | – | – |
| COc1ccc(-c2ccc(NC(=O)c3cc4sc(NCCN5CCOCC5)nc4s3)cc2)cn1 [Compound 292] | 1 to 20 (≈ 0.496 to 9.91 µg/mL) | < 1 | – | – |
| N#Cc1ccc(NC(=O)c2cc3sc(N4CCC(O)CC4)nc3s2)cc1 [Compound 133] | 1 to 20 (≈ 0.384 to 7.69 µg/mL) | < 1 | – | – |
| COc1ccc(NC(=O)c2cc3sc(N4CCc5cc(OC)ccc5C4)nc3s2)cc1 [Compound 168] | 1 to 20 (≈ 0.452 to 9.03 µg/mL) | < 1 | – | – |
| Cc1nc2cc(NC(=O)c3cc4sc(NCCOc5ccc(Cl)cc5)nc4s3)ccc2o1 [Compound 290] | > 20 | < 1 | – | – |
| O=C(Nc1ccc2[nH]cnc2c1)c1cc2sc(N3CCOCC3)nc2s1 [Compound 113] | > 20 | > 20 | – | – |
| Cc1nc2cc(NC(=O)c3cc4sc(NCCO)nc4s3)ccc2o1 [Compound 267] | 1 to 20 (≈ 0.374 to 7.49 µg/mL) | 1 to 20 (≈ 0.374 to 7.49 µg/mL) | – | – |
| Cc1ccc(-c2ccc(NC(=O)c3cc4sc(NCCN5CCOCC5)nc4s3)cc2)nc1 [Compound 260] | 1 to 20 (≈ 0.48 to 9.59 µg/mL) | < 1 | – | – |
| O=C(Nc1ccc(F)cn1)c1cc2sc(N3CCOCC3)nc2s1 [Compound 105] | 1 to 20 (≈ 0.364 to 7.29 µg/mL) | < 1 | – | – |
| O=C(Nc1ccc(-c2ccc(F)nc2)cc1)c1cc2sc(NCCOc3ccc(Cl)cc3)nc2s1 [Compound 301] | > 20 | < 1 | – | – |

| Structure (SMILES) | MIC50 [1] [µM] | MIC50 [2] [µM] | QUM (MIC50, uM) [1] | QIM (MIC50, uM) [2] |
| --- | --- | --- | --- | --- |
| O=C(Nc1ccc(N2CCC(C(=O)c3ccc(Cl)cc3)CC2)cc1)c1cc2sc(N3CCOCC3)nc2s1 [Compound 226] | > 20 | < 1 | – | – |
| COc1ccc(NC(=O)c2cc3sc(N4CCC(O)CC4)nc3s2)cc1 [Compound 76] | < 1 | < 1 | – | – |
| O=C(Nc1ccc(F)cc1)c1cc2sc(NC3CCNCC3)nc2s1 [Compound 312] | > 20 | > 20 | – | – |
| Cc1nc2cc(NC(=O)c3sc4nc(N5CCOCC5)sc4c3N)ccc2o1 [Compound 230] | > 20 | > 20 | – | – |
| Cc1nc2cc(NC(=O)c3cc4sc(N5CCC(Cc6ccc(Cl)cc6)CC5)nc4s3)ccc2o1 [Compound 236] | > 20 | < 1 | – | – |
| Cc1nc2cc(NC(=O)c3cc4sc(N5CC(C(=O)N(C)C)C5)nc4s3)ccc2o1 [Compound 244] | > 20 | < 1 | – | – |
| CC(C)(C)OC(=O)N1CCN(c2nc3sc(C(=O)Nc4ccc(-c5ccc(F)cn5)cc4)cc3s2)CC1 [Compound 306] | > 20 | < 1 | – | – |
| CN(CCO)c1nc2sc(C(=O)Nc3ccc(-c4ccc(F)nc4)cc3)cc2s1 [Compound 272] | < 1 | < 1 | – | – |
| Cc1nc2cc(NC(=O)c3cc4sc(N5CCN6CCCC6C5)nc4s3)ccc2o1 (centres unmarked) [Compound 323] | < 1 | < 1 | – | – |
| Cc1nc2cc(CNC(=O)c3cc4sc(N5CCOCC5)nc4s3)ccc2o1 [Compound 229] | > 20 | 1 to 20 (≈ 0.415 to 8.29 µg/mL) | – | – |
| O=C(Nc1ccc(F)cc1)c1cc2sc(NC3CCCN(c4ccc(F)cc4)C3)nc2s1 (centres unmarked) [Compound 318] | > 20 | < 1 | – | – |
| O=C(Nc1ccc(-c2ccc(F)nc2)cc1)c1cc2sc(N3CCN4CCCC4C3)nc2s1 (centres unmarked) [Compound 338] | < 1 | < 1 | – | – |
| COc1ccc(NC(=O)c2cc3sc(N4CCNCC4)nc3s2)cc1 [Compound 92] | 1 to 20 (≈ 0.374 to 7.49 µg/mL) | 1 to 20 (≈ 0.374 to 7.49 µg/mL) | – | – |
| O=C(Nc1ccc(Oc2ccc(Cl)cc2)cc1)c1cc2sc(N3CCNCC3)nc2s1 [Compound 345] | 1 to 20 (≈ 0.471 to 9.42 µg/mL) | < 1 | – | – |
| CCCC(=O)Nc1nc2sc(C(=O)Nc3ccc4oc(C)nc4c3)cc2s1 [Compound 243] | > 20 | < 1 | – | – |
| O=C(Nc1ccc(N2CCC(Oc3ccc(Cl)cc3)CC2)cc1)c1cc2sc(N3CCOCC3)nc2s1 [Compound 193] | > 20 | < 1 | – | – |
| CN(CCO)c1nc2sc(C(=O)Nc3ccc4oc(Cc5ccc(F)cc5)nc4c3)cc2s1 [Compound 251] | 1 to 20 (≈ 0.483 to 9.65 µg/mL) | < 1 | – | – |
| CC1CCN(c2ccc(NC(=O)c3cc4sc(NCCOc5ccc(Cl)cc5)nc4s3)cc2)CC1 [Compound 347] | > 20 | > 20 | – | – |
| O=C(Nc1ccc(-c2ccc(F)nc2)cc1)c1cc2sc(N3CCNCC3)nc2s1 [Compound 289] | 1 to 20 (≈ 0.44 to 8.79 µg/mL) | < 1 | – | – |
| O=C(Nc1ccc(-c2ccc(F)cn2)cc1)c1cc2sc(NCC(O)C(F)(F)F)nc2s1 (centres unmarked) [Compound 340] | 1 to 20 (≈ 0.482 to 9.65 µg/mL) | < 1 | – | – |
| Cc1ccc(-c2ccc(NC(=O)c3cc4sc(N5CCC(C(=O)N(C)C)CC5)nc4s3)cc2)nc1.Cl [Compound 258] | – | – | ++ (++ indicates between 1-20 uM) | +++ (+++ indicates <1 uM) |
| Cc1nc2cc(NC(=O)c3cc4sc(N5CCC(N)CC5)nc4s3)ccc2o1 [Compound 234] | 1 to 20 (≈ 0.414 to 8.27 µg/mL) | < 1 | – | – |
| COCCN(c1nc2sc(C(=O)Nc3ccc4oc(C)nc4c3)cc2s1)C1CC1 [Compound 270] | > 20 | > 20 | – | – |

| Structure (SMILES) | MIC50 [1] [µM] | MIC50 [2] [µM] | QUM (MIC50, uM) [1] | QIM (MIC50, uM) [2] |
| --- | --- | --- | --- | --- |
| Cc1nc2cc(NC(=O)c3cc4sc(N5CCN(C(=O)N(C)C)CC5)nc4s3)ccc2o1 [Compound 237] | < 1 | < 1 | – | – |
| C#CCOc1ccc(-c2ccc(NC(=O)c3cc4sc(NCCN5CCOCC5)nc4s3)cc2)cc1 [Compound 359] | 1 to 20 (≈ 0.519 to 10.4 µg/mL) | < 1 | – | – |
| COc1ccc(NC(=O)c2cc3nc(N4CCOCC4)sc3s2)cc1 [Compound 27] | > 20 | 1 to 20 (≈ 0.375 to 7.51 µg/mL) | – | – |
| Cc1ccc(-c2ccc(NC(=O)c3cc4sc(N5CCOCC5)nc4s3)cc2)nc1 [Compound 218] | > 20 | < 1 | – | – |
| Cc1nc2cc(NC(=O)c3cc4sc(NCCN5CCCCC5)nc4s3)ccc2o1 [Compound 297] | > 20 | 1 to 20 (≈ 0.442 to 8.83 µg/mL) | – | – |
| O=C(Nc1ccc(F)cn1)c1cc2sc(NCCN3CCOCC3)nc2s1 [Compound 335] | 1 to 20 (≈ 0.407 to 8.15 µg/mL) | 1 to 20 (≈ 0.407 to 8.15 µg/mL) | – | – |
| CN(CC(O)C(F)(F)F)c1nc2sc(C(=O)Nc3ccc(-c4ccc(F)nc4)cc3)cc2s1 (centres unmarked) [Compound 339] | < 1 | < 1 | – | – |
| Cc1nc2cc(NC(=O)c3cc4sc(N5CC[C@@H](C(=O)N(C)C)C5)nc4s3)ccc2o1 [Compound 223] | 1 to 20 (≈ 0.456 to 9.11 µg/mL) | 1 to 20 (≈ 0.456 to 9.11 µg/mL) | – | – |
| COC(=O)c1ccc(NC(=O)c2cc3nc(N4CCCCC4)sc3s2)cc1 [Compound 13] | 1 to 20 (≈ 0.402 to 8.03 µg/mL) | < 1 | – | – |
| Cc1nc2cc(NC(=O)c3cc4sc(NCCCN5CCOCC5)nc4s3)ccc2o1 [Compound 296] | 1 to 20 (≈ 0.458 to 9.15 µg/mL) | < 1 | – | – |
| Cc1nc2cc(NC(=O)c3cc4sc(N(CCO)C(C)C)nc4s3)ccc2o1 [Compound 232] | 1 to 20 (≈ 0.417 to 8.33 µg/mL) | < 1 | – | – |
| O=C(Nc1ccc(F)cc1)c1cc2sc(NCCN3CCOCC3)nc2s1 [Compound 302] | 1 to 20 (≈ 0.407 to 8.13 µg/mL) | < 1 | – | – |
| O=C(Nc1ccc(F)cc1)c1cc2sc(NC3CCN(Cc4ccc(F)cc4)CC3)nc2s1 [Compound 314] | < 1 | < 1 | – | – |
| O=C(O)c1ccc(NC(=O)c2cc3sc(N4CCCCC4)nc3s2)cc1 [Compound 51] | 1 to 20 (≈ 0.387 to 7.75 µg/mL) | 1 to 20 (≈ 0.387 to 7.75 µg/mL) | – | – |
| CCc1ccc(NC(=O)c2cc3nc(N4CCCCC4)sc3s2)cc1 [Compound 12] | > 20 | > 20 | – | – |
| Cc1nc2cc(NC(=O)c3cc4ccc(N5CCOCC5)nc4s3)ccc2o1 [Compound 176] | > 20 | > 20 | – | – |
| COCCN(c1nc2sc(C(=O)Nc3ccc4oc(C)nc4c3)cc2s1)C(C)C [Compound 242] | 1 to 20 (≈ 0.431 to 8.61 µg/mL) | < 1 | – | – |
| Cc1nc2cc(NC(=O)c3cc4sc(N(C)CCCO)nc4s3)ccc2o1 [Compound 238] | 1 to 20 (≈ 0.403 to 8.05 µg/mL) | < 1 | – | – |
| Cc1nc2cc(NC(=O)c3cc4sc(N(CCO)C5CCCCC5)nc4s3)ccc2o1 [Compound 227] | 1 to 20 (≈ 0.457 to 9.13 µg/mL) | > 20 | – | – |
| O=C(Nc1ccc(-c2ccc(F)cn2)cc1)c1cc2sc(N3CCNCC3)nc2s1 [Compound 315] | 1 to 20 (≈ 0.44 to 8.79 µg/mL) | < 1 | – | – |
| CN(CCO)c1nc2sc(C(=O)Nc3ccc(N4CCC(Oc5ccc(F)cc5)CC4)cc3)cc2s1 [Compound 250] | > 20 | < 1 | – | – |
